The source of these data is patent US20220133761A1, “NEUTROPHIL APOPTOSIS INDUCED BY NANOPARTICLES FOR TREATING INFLAMMATORY DISEASES” (WASHINGTON STATE UNIVERSITY, priority 2020, published 2022).

Data set [1] has as its system differentiated HL-60 cells (neutrophil-like cells). Nature of the data set: In vitro cytotoxicity, CCK-8 assay. The note with it: 24 h, different concentrations of DOX. In kind it is cell-based, human. The method, then: Cytotoxic effects of BSA NPs on HL-60 cells were measured by CCK-8 assay. HL-60 cells were plated in 96-well plates (Costar, Corning, N.Y.) at 5,000-10,000 cells/well. After incubation for 24 h, the culture medium was removed and a complete medium with various concentrations of free DOX, BSA and DOX-conjugated BSA NPs was used to incubate cells for 24 h, respectively. 10 μL of the solution cell proliferation reagent (Promega, Madison, Wis.) per well was added. Then, the cell viability was measured by a Synergy Neo fluorescence plate reader (BioTek, Winooski, Vt.) at 490 nm.
Background: Tetrazolium assays rely on reduction of a dye to a coloured formazan, in cell work by metabolically active cells.

The next data set relates to LPS-challenged mice. As to the kind of experiment: Survival study in sepsis mouse model (i.p. LPS 50 mg/kg). In kind it is in vivo. Particulars: 72 h, 0.2 mg/kg DOX i.v. 4 h after i.p. LPS 50 mg/kg. How it is done: Adult CD-1 mice were i.p. injected with LPS (50 mg/kg) in the mouse sepsis model. 4 hours later, the LPS-challenged mice were grouped randomly (10 mice per group) and treated (i.v.) with PBS, free DOX (0.2 mg/kg), and prodrug DOX-hyd-BSA NPs (equal to 0.2 mg/kg of free DOX). The animals were monitored every 6 h in the first 12 h followed by monitoring mice every 12 h in 72 h.

Data set [2] deals with differentiated HL-60 cells. Nature of the data set: Apoptosis analysis, Annexin V-FITC / 7AAD staining (flow cytometry, CLSM). Format: cell-based, human. The note with it: for apoptotic cells by flow cytometry: 24 h, DOX 3 μg/mL; for Annexin V-FITC / 7AAD staining by confocal microscopy: 24 h treatment. How it is done:
To investigate the apoptosis of neutrophils induced by DOX, Annexin V-FITC and 7AAD were used to double stain differentiated HL-60 cells. […] The cells were re-suspended in a binding buffer for staining of Annexin V-FITC and 7AAD (emission at 650 nm) according to the manufacturer's protocol (Invitrogen). Stained cells were analyzed using a flow cytometer and imaged by a Nikon A1R^+ confocal laser scanning microscope.
In general terms: Flow cytometry measures light scatter and fluorescence of single cells or particles in a stream.

Data set [3] deals with heart, liver, spleen, lung and kidney. As to the kind of experiment: Toxicity by histological analysis (H&E staining of major organs). Particulars: for tissue or cellular damage in H&E sections of heart, liver, spleen, lung, kidney: 0.2 mg/kg DOX. The method, then: After different treatments (healthy, PBS, 4 mg/kg of free DOX, 0.2 mg/kg of free DOX, DOX-hyd-BSA NPs and DOX-ab-BSA NPs, equal to 0.2 mg/kg of DOX for NPs), mice were sacrificed by carbon dioxide asphyxiation. […] The samples were imaged by a microscope (ZEISS, Observer. Z1, USA).

Data set [4] relates to differentiated HL-60 cells. Nature of the data set: TUNEL apoptosis assay. Format: cell-based, human. The note with it: CLSM images. The method, then:
To further confirm the apoptosis of differentiated HL-60 cells induced by DOX, TUNEL assay was also performed using Cell Meter™ TUNEL (green fluorescence) Apoptosis Assay Kit (AAT Bioquest, Inc.) according to the manufacturer's protocol and the images were taken by a Nikon A1R^+ confocal laser scanning microscope.

Data set [5] is described as follows: pH-triggered DOX release, UV-Vis of supernatants after 2 h incubation. In kind it is physicochemical. Particulars: pH 5.0 to 7.4, 2 h incubation in PBS. The method, then:
To confirm the pH-triggered drug release property, BSA NPs, DOX-ab-BSA NPs and DOX-hyd-BSA NPs were incubated in PBS at pH 7.4, 6.5 and 5.0 for 2 h, respectively. After centrifugation, the supernatants were collected to determine DOX concentrations using a UV-Vis spectrometer.

Data set [6] is described as follows: In vitro drug release profile (dialysis, 37 C). The note with it: pH 5.0-7.4, in 48 h. Format: physicochemical. How it is done:
Release profiles of DOX from NPs were studied using dialysis method at 37° C.(33) Briefly, 3 mg of NPs was dispersed in 3 mL (Ve) PBS at different pH, and then was placed in a dialysis bag (MWCO 3500 Da). The dialysis bag was immersed in 47 mL PBS (pH 7.4, 6.5 or 5.0) in a beaker. The beaker was then placed in a 37° C. water bath and stirred at 110 rpm. The samples were drawn at desired time intervals and the drug concentration was measured using UV-Vis absorption. The experiments were carried out in triplicate at each pH value. The accumulative drug release percent (Er) was calculated based on equation (1).
where, mdrug represents the amount of DOX in NPs, V0 was the whole volume of release media (V0=50 mL), Ci represents the concentration of DOX in the ith sample.

The nature of data set [7]: Serum stability of nanoparticles in PBS with 20% FBS. Format: physicochemical. The note with it: pH 7.4, incubation for 4 days. How it is done: Particle size and polydispersity indexes (PDI) were measured using Malvern Zetasizer Nano90 (Westborough, Mass.). The samples were incubated in PBS at pH 7.4 for 2 h, and the measurements were conducted in a 1.0 mL quartz cuvette using a diode laser of 633 nm at 25° C. and a scattering angle was fixed at 90°. To evaluate their serum stability, nanoparticles were dispersed in 20% FBS PBS solution (pH 7.4) at a final concentration of 1 mg/mL. Nanoparticle sizes were measured at the predefined time points. Transmission electron microscopy (TEM) of nanoparticles was also performed using a FEI Technai G2 20 Twin TEM (Hillsboro, Oreg.).

Consider `COc1cccc2c1C(=O)c1c(O)c3c(c(O)c1C2=O)C[C@@](O)(C(=O)CO)C[C@@H]3O[C@H]1C[C@H](N)[C@H](O)[C@H](C)O1.Cl` [free DOX, doxorubicin hydrochloride], for which the “cytotoxicity (cell viability)” value in data set [1] was “cytotoxicity was similar for both free DOX and DOX-hyd-BSA NPs”. In addition, in the data set with LPS-challenged mice, the mouse survival is recorded as 10-20%. In addition, in data set [2], the “apoptotic cells by flow cytometry” value was found to be 73%; the “Annexin V-FITC / 7AAD staining by confocal microscopy” value was “contained staining of Annexin-V-FITC, and less staining of 7AAD”. The “tissue or cellular damage in H&E sections of heart, liver, spleen, lung, kidney” value in data set [3] is “did not show any noticeable signs of tissue or cellular damage”. In addition, the “myocardial damage (vacuolization, myofibril loss)” value in data set [3] (high dose 4.0 mg/kg) is “induced myocardial damage”. In data set [4], the “cells with co-staining of DOX and TUNEL” value is ~100%.
On to DOX-ab-BSA NPs, for which, in data set [1], the “cytotoxicity (cell viability)” value is “more efficient compared to that of DOX-ab-BSA NPs”. For the same compound, the “DOX absorption in supernatant” value in data set [5] is recorded as “did not show the absorption of DOX in their supernatants”. Moreover, the “cumulative DOX release” value in data set [6] is 10-20%. Moreover, in data set [2], the “apoptotic cells by flow cytometry” value was 20% and the “Annexin V-FITC / 7AAD staining by confocal microscopy” value was “did not induce cell apoptosis”. The “tissue or cellular damage in H&E sections of heart, liver, spleen, lung, kidney” value in data set [3] is listed as “did not show any noticeable signs of tissue or cellular damage”. Moreover, the “co-staining of DOX and TUNEL” value in data set [4] is “a few cells possessed TUNEL signal”. The “serum stability (aggregation, diameter change)” value in data set [7] is reported as “no aggregation (diameter change) was observed”.
